The results in this text go back to patent US20230364032A1, “USE OF 2-HOBA TO TREAT ATHEROSCLEROSIS” (Vanderbilt University, priority 2020, published 2023).

Entries after “also recorded” stand apart in the source; their conditions may differ.

Series [1] relates to atherosclerotic lesions of Ldlr−/− mice. Kind of series: Masson's Trichrome staining of lesions (collagen, fibrous cap, necrotic area). The format is in vivo, mouse. The text has this:
Masson's Trichrome Staining was applied for measurement of atherosclerotic lesion collagen content, fibrous cap thickness and necrotic core size following the manufacturer's instructions (Sigma) and as previously described^30. Briefly, 5 μm cross-sections of proximal atherosclerotic aorta root were fixed with Bouin's solution, stained with hematoxylin for nuclei (black) and biebrich scarlet and phosphotungstic/phosphomolybdic acid for cytoplasm (red), and aniline blue for collagen (blue). Images were captured and analyzed for collagen content, atherosclerotic cap thickness and necrotic core by ImageJ software as described previously^30. The necrotic area is normalized to the total lesion area and is expressed as the % necrotic area.

A further series concerns primary macrophages. Nature of the series: H2O2-induced apoptosis of macrophages (Annexin V). Type of series: cell-based, mouse. The following applies: 250 μM H2O2, 24 h, 500 μM compound; compared to vehicle or 4-HOBA. The method, then:
(§1) (6A and 6B) Mouse aortic endothelial cells (6A) or primary macrophages (6B) were incubated for 24 h with 250 μM H2O2 alone or with either 4-HOBA or 2-HOBA (500 μM). Apoptotic cells were then detected by Annexin V staining and flow cytometry. (6C to 6H) The mRNA levels of IL-1β, IL-6, and TNF-α were analyzed by real time PCR in the peritoneal macrophages incubated for 24 h with either oxidized LDL (6C-6E) or 250 μM H2O2 (6F-6H) alone or with either 4-HOBA or 2-HOBA (500 μM). (6A to 6H) Data are presented as mean±SEM from three independent experiments, ***p<0.001, One-way ANOVA with Bonferroni's post hoc test.
(§2) Peritoneal macrophages were isolated from mice 72 hours post injection of 3% thioglycollate and maintained in DMEM plus 10% fetal bovine serum (FBS, Gibco) as previously described^30. Human aortic endothelial cells (HAECs) were obtained from Lonza and maintained in endothelial cell basal medium-2 plus 1% FBS and essential growth factors (Lonza).
(§3) Cell apoptosis was induced as indicated and detected by fluorescent labeled Annexin V staining and quantitated by either Flow Cytometry (BD 5 LSRII) or counting Annexin V positive cells in images captured under a fluorescent microscope. The apoptotic cells in atherosclerotic lesions were measured by TUNEL staining of cross-sections of atherosclerotic proximal aortas as previously described^30. […]

The test system of another series is aortic endothelial cells. Nature of the series: H2O2-induced apoptosis of endothelial cells (Annexin V). The format is cell-based, mouse. To be noted: 250 μM H2O2, 24 h, 500 μM compound; compared to vehicle or 4-HOBA. The method, then:
as §1, §2, §3

A further series deals with cyclooxygenase (COX). Kind of series: Urinary prostaglandin metabolites (LC/MS). The format is in vivo, mouse. The method, then:
The urine samples were collected in metabolic cages with 2 mice per cage after 12 weeks of treatment with 2-HOBA or water. The contents of PGE-M (20A), tetranor PGD-M (20B), 2,3-dinor-6-keto-PGF1 (20C) and 11-dehydro TxB2 (20D) were analyzed by LC/MS/MS. (20A-20D) Mean±SEM shown for each, N.S., Mann-Whitney Test.
Concentrations of PGE-M, tetranor PGD-M, 11-dehydro-TxB^2 (TxB-M) and PGI-M in urine were measured in the Eicosanoid Core Laboratory at Vanderbilt University Medical Center. Urine (1 mL) was acidified to pH 3 with HCl. [^2H4]-2,3-dinor-6-keto-PGF1a (internal standard for PGI-M quantification) and [^2H4]-11-dehydro-TxB2 were added, and the sample was treated with methyloxime HCl to convert analytes to the O-methyloxime derivative. The derivatized analytes were extracted using a C-18 Sep-Pak (Waters Corp. Milford, MA USA) and eluted with ethyl acetate as previously described^68. A [^2H6]—O-methyloxime PGE-M deuterated internal standard was then added for PGE-M and PGD-M quantification. The sample was dried under a stream of dry nitrogen at 37° C. and then reconstituted in 75 μL mobile phase A for LC/MS analysis.
LC was performed on a 2.0×50 mm, 1.7 μm particle Acquity BEH C18 column (Waters Corporation, Milford, MA, USA) using a Waters Acquity UPLC. […]
Urinary creatinine levels are measured using a test kit from Enzo Life Sciences. […]

Series [2] has as its system WT peritoneal macrophages. Kind of series: Cholesterol enrichment of macrophages by LDL from treated mice. The following applies: LDL from 2-HOBA versus 4-HOBA or vehicle treated Ldlr−/− mice, 24 hrs. Type of series: cell-based, mouse. The method, then: FIG. 21A-D show the effects of 2-HOBA on plasma and LDL MDA adducts in hypercholesterolemic Ldlr^−/− mice. (20A) The MDA content in plasma from Ldlr^−/− mice consuming a Western diet for 16 weeks and treated with 2-HOBA, 4-HOBA, or vehicle was measured by TBARS Assay(*p<0.05, **p<0.01). (20B) The levels of MDA adducts were measured from LDL isolated from the Ldlr^−/− mice by ELISA. N=10 per group, ***p<0.001. (20C) LDL was isolated from control and FH subjects (n=6) pre and post LDL apheresis and the MDA adduct content was measured by ELISA. (20D) LDL was isolated from 2-HOBA, 4-HOBA, or vehicle treated hypercholesterolemic Ldlr^−/− mice. WT peritoneal macrophages were incubated for 24 hrs with the LDL and the cellular cholesterol content was measured as described in methods. (20A-D) One-way ANOVA with Bonferroni's post hoc test).
MDA was prepared immediately before use by rapid acid hydrolysis of maloncarbonyl bis-(dimethylacetal) as described^31. Briefly, 20 μL of 1 M HCl was added to 200 μL of maloncarbonyl bis-(dimethylacetal), and the mixture was incubated for 45 min at room temperature. The MDA concentration was determined by absorbance at 245 nm, using the coefficient factor 13, 700 M^−1 cm^−1. […] The LDL samples were incubated for 24 h with macrophages and the cholesterol content of the cells was measured using an enzymatic cholesterol assay as described^61.

`NCc1ccccc1O` [2-HOBA, 2-hydroxybenzylamine]: the “features of stable atherosclerotic plaques” value in series [1] was “promotes features of stable atherosclerotic plaques”. Further, the “increase of collagen content of the proximal aorta” value in series [1] (compared to 4-HOBA) was found to be 2.6 fold. Moreover, in series [1] (compared to vehicle), the “increase of collagen content of the proximal aorta” value was found to be 2.7 fold. For the same compound, in series [1] (versus 4-HOBA), the “decrease of % of necrotic area in the proximal aorta” value is reported as 73.5% and the “fibrous cap thickness, fold greater” value is 2.29 fold. For the same compound, the “number of apoptotic cells, macrophage cultures” value in the series with primary macrophages is “markedly decreased”. In addition, the “number of apoptotic cells, endothelial cell cultures” value in the series with aortic endothelial cells is given as “markedly decreased”. The “levels of major urinary prostaglandin metabolites (2,3-dinor-6-keto-PGF1, 11-dehydro TxB2, PGE-M, PGD-M)” value with cyclooxygenase (COX) (Ldlr−/− mice, compared to the vehicle control) is reported as “no significant differences; also recorded: did not impact”. In addition, in the series with cyclooxygenase (COX) (mice), the “inhibition of COX in vivo” value is “not significantly inhibiting COX”. The “ability of LDL from treated mice to enrich cells with cholesterol” value in series [2] is reported as “not different”.
